Experimental data: US20220347146A1, “CANCER TREATMENT” (AXELIA ONCOLOGY PTY LTD, priority 2019, published 2022)

Tests used:
[1] = cited from earlier work; for IL-10 and Tregs / anti-tumour activity: subcutaneous or intraperitoneal administration (Yamazaki et al. 2011)
EMT6.5 cells = assay: EMT6.5 orthotopic mammary tumour model, i.v. therapy; format: in vivo, mouse
Protocol: Balb/c mice (n=12) were implanted orthotopically with 100,000 EMT6.5 cells into the 4th inguinal mammary gland and established tumours monitored by calliper measurement. When tumours were ˜200 mm^3 the mice were randomized to either one of two therapeutic arms (n=6 per arm); 1) compound A108 (10 μg, per mouse), or 2) Vehicle (saline) control. Therapy was administered intravenously to tumour bearing mice in three doses, three days apart. All mice completed therapy and were culled 21 days after tumour implant. The primary tumours, lungs and spleens were recovered and weighed. Lungs were analysed by real time quantitative PCR (RTQ-PCR) for evaluation of metastatic burden. Body weight was measured throughout the experiment.

Row | Molecule | myeloid derived suppressor cells ([1]; intravenous administration (Maruyama et al. 2015)) | IL-10 and Tregs [1] | anti-tumour activity [1] | severe weight loss (EMT6.5 cells; 10 μg per mouse i.v., three doses) | body weight on initial therapy (EMT6.5 cells; 10 μg per mouse i.v., three doses three days apart, data not shown) | reversibility of weight loss (EMT6.5 cells; following cessation of therapy)
1 | Pam2CysSK4 | promotes myeloid derived suppressor cells | induce IL-10 and Tregs | no anti-tumour activity | – | – | –
2 | MALP2 | – | induce IL-10 and Tregs | no anti-tumour activity | – | – | –
3 | CCCCCCCCCCCCCCCC(=O)OC[C@H](CSC[C@H](N)C(=O)N[C@@H](CO)C(=O)NCCOCCOCCOCCOCCOCCOCCOCCOCCOCCOCCOCCOCCOCCOCCOCCOCCOCCOCCOCCOCCOCCOCCOCCOCCOCCOCCOCCOCCC(=O)NCC(N)=O)OC(=O)CCCCCCCCCCCCCCC [A108] | – | – | – | No severe weight loss was observed | induced an acute weight loss | reversible following cessation of therapy
